Patent US20120302748A1, “TREATMENT OR PROPHYLAXIS OF PROLIFERATIVE CONDITIONS” (THE UNIVERSITY COURT OF THE UNIVERSITY OF DUNDEE, priority 2009, published 2012)
Like-named read-outs stand apart in the source and are kept apart here.

How the values were obtained:
CYP1B1 [1] = target: T1, CYP1B1 (Homo sapiens, UniProt Q16678); experiment: CYP1B1 substrate prediction model (Gaussian Kernel weighted k-NN); conditions: predicted versus actual
T1 sequence (Q16678 1-543): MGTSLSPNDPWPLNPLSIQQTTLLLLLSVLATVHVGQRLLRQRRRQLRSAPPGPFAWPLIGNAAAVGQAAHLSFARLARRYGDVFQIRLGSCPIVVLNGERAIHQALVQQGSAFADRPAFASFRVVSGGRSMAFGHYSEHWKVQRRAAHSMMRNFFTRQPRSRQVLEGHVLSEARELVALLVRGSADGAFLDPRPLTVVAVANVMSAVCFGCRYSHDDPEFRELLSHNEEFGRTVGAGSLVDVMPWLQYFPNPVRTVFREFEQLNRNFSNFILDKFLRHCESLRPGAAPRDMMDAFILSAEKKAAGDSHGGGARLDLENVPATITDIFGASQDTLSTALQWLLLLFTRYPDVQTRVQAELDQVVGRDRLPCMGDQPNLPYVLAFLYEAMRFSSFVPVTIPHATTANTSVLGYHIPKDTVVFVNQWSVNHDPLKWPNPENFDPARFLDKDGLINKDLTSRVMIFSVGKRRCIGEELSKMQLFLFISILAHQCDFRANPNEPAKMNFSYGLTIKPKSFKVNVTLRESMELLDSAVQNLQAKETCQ

[2] = target: T2, human supersomal CYP1B1 plus reductase (Homo sapiens, UniProt Q16678); experiment: CYP1B1 substrate inhibition, P450-Glo Luciferin-CEE luminescent assay; conditions: final concentration of 0.5 mmol dm^−3; triplicate, mean ± standard deviation
T2 sequence (Q16678 1-543): T1 sequence (Q16678 1-543)

UT-SCC-14 tumour cells = experiment: Cytotoxicity in primary HNSCC tumour cell line UT-SCC-14 (MTS assay); conditions: Homo sapiens, 72 h, read-out: cytotoxicity IC50 UT-SCC-14
Protocol: A UT-SCC-14 tumour cell suspension at 2000 cells per well on a 96-well plate and if necessary add fresh media to give a total volume per well of 100 μl. The cells were allowed to attach for 4 h in an incubator. […] The final concentration of ethanol 0.2% was found not to effect the growth characteristics of the UT-SCC-14 cell line. The UT-SCC-14 cells were incubated with test compound for 72 h after which time all aspirated and replaced with 100 μl of fresh medium to compensate for the loss of medium due to evaporation. The cells were incubated with 20 μl of the MTS assay reagent for 1.5 h and the absorbance per well at 510 nm measured using a plate reader. The mean absorbance and standard deviation for each test compound concentration was calculated versus a series of controls including (a) cells plus medium, (b) cell plus medium containing ethanol 0.2%, (c) medium alone, and (d) medium containing ethanol 0.2% and a range of test compound concentrations from 0 to 100 μmol dm^−3.

UT-SCC-8 = experiment: cells; conditions: Homo sapiens, 72 h, read-out: cytotoxicity IC50 UT-SCC-8
UT-SCC-10 = experiment: cells; conditions: Homo sapiens, 72 h, read-out: cytotoxicity IC50 UT-SCC-10
UT-SCC-9 = experiment: cells; conditions: Homo sapiens, 72 h, read-out: cytotoxicity IC50 UT-SCC-9
CHO/CYP1B1 cells [3] = experiment: cells; conditions: Cricetulus griseus
[4] = system: UTSCC-14 primary human tumour xenograft; experiment: Anti-tumour activity in primary human tumour xenograft model; type: in vivo, nude mice; conditions: for Tumour growth delay at 28 days: 2 cycles daily for 5 days/2 days off
Protocol: Primary UTSCC-14 cell lines 3×10^6 were implanted subcutaneously in the flank of nude mice. Mice were randomized to 10 animals per group when the tumour volume was 100 to 150 mm^3. SU046-04 was given intraperitoneally at 12, 25 and 50 mg/Kg in PBS versus versus vehicle alone for 2 cycles: daily for 5 days/2 days off. Tumour volume was measured every 4 days using calipers. […] Tumour growth delay at 28 days was 31% at 12 mg/Kg, 56% at 25 mg/Kg, and 90% at 50 mg/Kg with 4/10 complete responses.

CYP1A1 [5] = experiment: in vitro; conditions: Chinese hamster
in vitro = conditions: Chinese hamster
CHO/CYP1B1 cells [6] = system: CHO/CYP1B1 cells
CYP1B1 [7] = target: T1, CYP1B1; experiment: CYP1B1 substrate inhibition, P450-Glo Luciferin-CEE luminescent assay; conditions: human
CYP1A1 [8] = target: T3, CYP1A1 (Homo sapiens, UniProt P04798); conditions: inhibitor at 10 nmol dm^−3
T3 sequence (P04798 1-512): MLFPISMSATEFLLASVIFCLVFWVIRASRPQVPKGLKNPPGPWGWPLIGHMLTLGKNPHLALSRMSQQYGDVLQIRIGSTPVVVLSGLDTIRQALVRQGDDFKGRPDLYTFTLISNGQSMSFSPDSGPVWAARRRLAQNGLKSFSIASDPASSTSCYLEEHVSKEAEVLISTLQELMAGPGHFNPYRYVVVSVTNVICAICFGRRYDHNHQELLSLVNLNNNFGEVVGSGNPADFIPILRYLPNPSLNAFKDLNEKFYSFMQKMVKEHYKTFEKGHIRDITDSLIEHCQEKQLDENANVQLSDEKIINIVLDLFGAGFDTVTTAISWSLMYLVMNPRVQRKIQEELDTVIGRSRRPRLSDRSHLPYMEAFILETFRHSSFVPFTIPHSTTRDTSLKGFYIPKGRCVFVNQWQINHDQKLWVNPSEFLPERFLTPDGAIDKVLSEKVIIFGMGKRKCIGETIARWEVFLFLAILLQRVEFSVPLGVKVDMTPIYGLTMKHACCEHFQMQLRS

CYP1A1 [9] = target: T3, CYP1A1; conditions: inhibitor at 10 nmol dm^−3; remark: listed apart in the source

Q: Which “% CYP1B1 substrate inhibition accuracy” value (CYP1B1 [1]) does the source give for `C[C@]12CC[C@@H]3c4ccc(O)cc4CC[C@H]3[C@@H]1CC[C@@H]2O` [β-estradiol, reference compound] here?
A: Its value is 95%.

Q: And the “% CYP1B1 substrate inhibition actual” value [2]?
A: The value was 72.34 ± 0.45%.

Q: For `O=P1(N(CCCl)CCCl)NCCCO1` (stereo not drawn) [cyclophosphamide], which “toxicity in the CHO cytotoxicity assay” value (CHO cells) is on record?
A: Its value is “non-toxic”.

Q: For `CC[C@@]1(O)C(=O)OCc2c1cc1n(c2=O)Cc2cc3cc(OCc4cc5cc(OC)cc(OC)c5o4)ccc3nc2-1` [SU037-04], which IC50 (UT-SCC-14 tumour cells) is on record?
A: The IC50 was 120 ± 70 nM.

Q: What about the IC50 (UT-SCC-8) of the same compound?
A: The IC50 was 560 ± 40 nM.

Q: What about the IC50 (UT-SCC-10) of the same compound?
A: The IC50 was 210 ± 40 nM.

Q: And the IC50 (UT-SCC-9)?
A: The IC50 was 220 ± 80 nM.

Q: With `COc1cc(OC)c2oc(COP(=O)(NCCBr)NCCBr)cc2c1` [SU046-04] as the compound, how does the “% CYP1B1 substrate inhibition accuracy” value (CYP1B1 [1]) read?
A: The value was 96%.

Q: What about the IC50 (CHO/CYP1B1 cells [3]; 72 h, read-out: Cytotoxicity (IC50) CHO/CYP1B1 72 h) of the same compound?
A: The IC50 was 4 ± 2 nM.

Q: What about the IC50 (CHO/CYP1B1 cells [3]; 96 h, read-out: Cytotoxicity (IC50) CHO/CYP1B1 96 h) of the same compound?
A: The IC50 was 3 ± 1 nM.

Q: What about the “Tumour growth delay at 28 days” value ([4]; 12 mg/Kg intraperitoneally) of the same compound?
A: The value was 31%.

Q: What about the “Tumour growth delay at 28 days” value ([4]; 25 mg/Kg intraperitoneally) of the same compound?
A: Its value is 56%.

Q: What about the complete responses ([4]; 50 mg/Kg intraperitoneally) of the same compound?
A: Its complete responses is 4/10.

Q: What about the “Tumour growth delay at 28 days” value ([4]; 50 mg/Kg intraperitoneally) of the same compound?
A: Its value is 90%.

Q: What about the “adverse effects / body weight loss” value ([4]; after highest exposure 250 mg/Kg) of the same compound?
A: Its value is “No observed adverse effects or significant body weight loss”.

Q: What about the “inhibition of tumour growth versus vehicle” value ([4]; all three treatment arms 12, 25 and 50 mg/Kg) of the same compound?
A: The value was “significant inhibition of tumour growth”.

Q: What about the IC50 (UT-SCC-14 tumour cells) of the same compound?
A: Its IC50 is 20 ± 10 nM.

Q: And the IC50 (CYP1A1 [5])?
A: Its IC50 is 20300 ± 2100 nM.

Q: And the IC50 (in vitro; Cytotoxicity (IC50) CHO 72 h)?
A: The IC50 was 20300 ± 1200 nM.

Q: What about the IC50 (in vitro; Cytotoxicity (IC50) CHO 96 h) of the same compound?
A: Its IC50 is 16200 ± 200 nM.

Q: And the IC50 (in vitro; cytotoxicity IC50 in wild-type CHO cells)?
A: The IC50 was no less than 10000 nM.

Q: And the “IC50 ratio 72 h (CHO / CHO/CYP1B1)” value (CHO/CYP1B1 cells [6])?
A: Its value is 5075.

Q: What about the inhibition at 0.5 mmol dm^−3 (CYP1B1 [7]) of the same compound?
A: Its inhibition at 0.5 mmol dm^−3 is 96.45 ± 0.22%.

Q: For tetramethoxystilbene, which “% CYP1B1 substrate inhibition accuracy” value (CYP1B1 [1]) is on record?
A: Its value is 98%.

Q: And the “Specific activity CHO/CYP1A1 ethoxyresorufin” value (CYP1A1 [8])?
A: The value was 26 ± 4 pmol resorufin or luciferin min^−1 mg protein^−1.

Q: What about the “Specific activity CHO/CYP1A1 Luciferin-CEE” value (CYP1A1 [9]) of the same compound?
A: Its value is 20 ± 5 pmol resorufin or luciferin min^−1 mg protein^−1.

Q: With `Cc1cc(=O)oc2cc(OCc3c4ccccc4cc4ccccc34)ccc12` [SU06-02, 7-(anthracen-9-ylmethoxy)-4-methyl-2H-chromen-2-one] as the compound, how does the melting point read?
A: The melting point was 216 to 218 °C.
